# Laboratory results published in patent US20010011085A1, “4-SUBSTITUTED CEPHEM DERIVATIVES AS ELASTASE INHIBITORS” (priority 1995, published 2001).
# Molecular target: T1, human leukocyte elastase (HLE) (Homo sapiens, UniProt P08246)
# T1 construct: purchased Elastin Product Company
# T1 sequence (P08246 30-267): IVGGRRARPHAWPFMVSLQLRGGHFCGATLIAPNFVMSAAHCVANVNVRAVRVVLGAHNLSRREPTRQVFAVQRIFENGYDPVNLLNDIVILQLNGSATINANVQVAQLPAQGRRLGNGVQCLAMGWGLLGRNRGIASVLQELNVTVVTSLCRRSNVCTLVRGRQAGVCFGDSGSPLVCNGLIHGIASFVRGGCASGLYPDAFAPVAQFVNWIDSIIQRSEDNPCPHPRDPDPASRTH
# Experiment: Kinetic parameters for HLE inhibition (fluorogenic substrate assay)
# Type: biochemical
# Settings: 37° C., 0.027M pH 7.4 phosphate buffer, substrate N-methoxysuccinyl-alanyl-prolyl-valyl-7-amido-4-methylcoumarin; for Ki: read-out: "Potency" Ki^ss (apparent dissociation constant of the HLE-inhibitor complex at steady state)
# Description: The compounds of the present invention are characterized by high inhibitory activity on elastases, especially human leukocyte elastase (HLE). […] These efficacy parameters for HLE inhibition, Ki^ss and k5/Ki, are defined in the equation below, representing the interaction of the enzyme (E) with the compounds (I), which is monitored (see Protocol) in the presence of a […] enzyme substrate (S): [formula]
# Kinetic parameters of HLE (Elastin Product Company) were determined at 37° C., 0.027M pH 7.4 phosphate buffer, […], 1% MeCN, NaCl (I=0.15), by monitoring the release of 7-amino-4-methylcoumarin (fluorescence detection) from N-methoxysuccinyl-alanyl-prolyl-valyl-7-amido-4-methylcoumarin as the substrate, according to the equations: [formula]
# Full details of the Experimental Protocol are reported in M. Alpegiani et al., Eur. J. Med. Chem. 1992, 27, 875-890.
"""Efficiency"" k5/Ki (rate of formation of the HLE-inhibitor complex)",Ki [nM],SMILES
"27,000 M^−1s^−1",20,"CO[C@H]1C(=O)N2C(C(=O)N3CCCC3)=C(C)C(Sc3nc(=O)c(O)nn3C)S(=O)(=O)[C@H]12 (stereo partly drawn) [Compound No. 11, (6R,7S)-4-(6-Hydroxy-2-methyl-5-oxo-2,5-dihydro-[1,2,4]triazin-3-yl-sulfanyl)-7-methoxy-3-methyl-5,5-dioxo-2-(pyrrolidine-1-carbonyl)-5-thia-1-aza-bicyclo [4.2.0]oct-2-en-8-one]"
"9,200 M^−1s^−1",100,"CO[C@H]1C(=O)N2C(C(=O)N3CCCC3)=C(CSc3nc(=O)c(=O)[nH]n3C)CS(=O)(=O)[C@H]12 [Reference, reference compound]"

SMILES,"""Efficiency"" k5/Ki (rate of formation of the HLE-inhibitor complex)",Ki [nM]
"CO[C@H]1C(=O)N2C(C(=O)N3CCCC3)=C(C)C(OC(=O)c3c(C)cc(C)cc3C)S(=O)(=O)[C@H]12 (stereo partly drawn) [Compound No. 1, 2,4,6-Trimethylbenzoic Acid (6R,7S)-7-methoxy-3-methyl-5,5,8-trioxo-2-(pyrrolidine-1-carbonyl)-5-thia-1-aza-bicyclo[4.2.0] oct-2-en-4-yl Ester]","800,000 M^−1s^−1",< 2
